Measured values taken from patent US20090270476A1, “PHARMACEUTICAL COMPOSITION FOR TREATMENT OR PREVENTION OF NEPHRITIS AND MANUFACTURING METHOD THEREOF” (priority 2005, published 2009).
Entries after “also recorded” stand apart in the source; their conditions may differ.

What was measured:
Format in all cases: in vivo, Wister rats
nephritis model rat [1] = test: Effects of orniplabin on urinary protein, lipid peroxide in blood and organomegaly in nephritis model rat
Description: Three-week-old male Wister rats (Charles River) were raised for 6 days with pellet diet (CE-2, Nihon Crea) and then raised with the 20% casein diet for 5 days to be subjected to the experiment. The animals were raised at approximately 22° C., with relative humidity […] under lighting from 8:00 to 20:00.
(§1) 0.6 mL of Anti-rat-glomerular basement membrance rabbit serum was administered into the caudal vein. Next day rabbit γ-globulin (Sigma), and 8 mg/0.2 mL Freund's complete adjuvant (Wako Junyaku) were subcutaneously injected into hinder leg's footpad to cause nephritis (nephritis model rat).
Since anti-serum was injected, the body weight and feed intake were measured every morning and urinary proteins of 24-hour urine was measured every other day, specifically urine was collected in a flask from 9 AM of the day before to 9 AM of the day and the measurement was carried out using commercial protein measurement kit (Bio-Rad, Protein Assay, Bio-Rad). (Refer to Biosci. Biotechnol. Biochem., 65, 1155-1162 (2001))
(§2) The urinary proteins were measured three days after the injection of anti-serum and the rats were grouped according to the measurement values. An orniplabin solution equivalent to 5 mg/Kg concentration was intrapenitoneally injected everyday to the orniplabin administration group since then. Nothing was injected to the control group. Rats of respective groups were dissected to remove blood, liver and kidneys 14 days after nephritis was induced, and weights of the removed materials were measured. Further lipid peroxides of a part of blood obtained were measured using a commercial measurement kit (Wako Junyaku). The normal group represents the untreated group, the control group represents—the nephritis-induced group and SMTP group represents the orniplabin-injected group. Student's t-test of significant difference between two groups was carried out as the level significance is 0.05. Tukey's multiple comparison method was used for the testing of significance between three groups. The data associated with the amount of urinary proteins and the weight of organs are treated with the scale per 100 g of body weight as a benchmark.

nephritis model rat [2] = test: Observation of PAS-stained kidney histologic sections and nephritis score
Description: Section samples were prepared from three animals selected according to the variation of urinary protein in respective groups. Periodic acid Schiff (PAS) staining was conducted on the kidney histologic section.
A procedure for PAS staining was; slicing a sampler washing the sample with water after paraffin-removal, soaking the sample in a solution of 1% periodic acid for 10 minutes, and washing again the sample with water; soaking the histologic section prepared in Schiff reagent for 10 to 15 minutes, washing the sample in a staining bat three times for 3 minutes, total for 9 minutes, and washing the sample with water; and then staining the sample with hematoxylin for 1 minute, washing the sample with warm water for 10 minutes, dehydrating and penetrating the sample and then sealing the sample.
Observation of the histologic sample was conducted on renal glomerulus using a microscope with 200× magnifications. The bar in Figs is corresponding to 50 μm.
Fifty (50) glomeruli every three samples of each group were ranked according to damaged levels. The ranks were from normal (rank 1) to the most progressed damage (rank 5) and five grades according to damages were given to provide a score. The average of the scores was decided as the score of the sample (nephritis score).

nephritis model rat [3] = test: Effects of orniplabin administration on plasma components in nephritis model rat
Description: as §1, §2
Further effects of orniplabin administration on plasma components were investigated by measuring a variety of concentrations of plasma component, (Normal group, n=6; control group, n=10; and orniplabin-injected group, n=6) The following plasma components were measured; lactate dehydrogenase (LD; PureAuto S LD), […] amino transferase (AST AutoSera S AST), alanine aminotransferase (ALT: AutoSera S ALT), creatine phosphate kinase (CPK; PureAuto S CK), alkaline phosphatase (ALP; AutoSera S ALP), γ-glutamyl transpeptidase (γ-GTP; PureAuto S γ-GT), total bilirubin (BIL: AutoSera BIL-2), glucose (GLU; PureAuto S GLU-R), triglyceride (TG; AutoSera S TG-N), total cholesterol (T-CHO; Choletest CHO), phospholipid (PL; PureAuto S PL), total protein (TP; AutoSera TP), urea nitrogen (UN; PureAuto S UN), albumin (ALB; AutoSera ALB), calcium (CA; AutoSera CA), inorganic phosphoric acid (IP; Clini mate IP-2), (Daiichi Chemical), creatinine (CRE-S; AccursAuto CRE, Sinotest), acetoacetic acid (ACAC; Ketone Test A Sanwa liquid, Sanwa Science Laboratories), 3-hydroxy butyric acid (OHBA; Ketone Test B Sanwa liquidA Sanwa Science Laboratories), free fafty acids (NEFA; AutoSera R NEFA (Daiichi Chemical) and HDL cholesterol (HDL; Cholest-R N HDL (Daichi Chemical) were used to measure. Further Hitachi Amino acid automatic analyzer 7180 (Hitachi) was used.
The comparison results between the control group and the orniplabin-injected group, and the normal group of which average value is as 1 are shown in FIG. 5 to FIG. 8.

[4] = 5 mg/Kg intraperitoneal everyday
[5] = 5 mg/Kg intraperitoneal everyday, 14 days after nephritis induction, weight per 100 g body weight
[6] = renal glomerulus, PAS staining, orniplabin-injected group
[7] = decrease by induction of nephritis
[8] = orniplabin-injected group vs control group

food intake (nephritis model rat [1]; [4]): without affecting
increase of body weight (nephritis model rat [1]; [4]): without affecting
SMILES: CC(C)=CCC/C(C)=C/CC[C@@]1(C)Oc2c(c(O)cc3c2CN(CCC[C@@H](C(=O)O)N2Cc4c(cc(O)c5c4O[C@](C)(CC/C=C(\C)CCC=C(C)C)[C@H](O)C5)C2=O)C3=O)C[C@H]1O [orniplabin]
urinary proteins (nephritis model rat [1]; 5 mg/Kg intraperitoneal everyday from day 3, 24-hour urine, vs control group): decreased
lipid peroxides in serum (nephritis model rat [1]; 5 mg/Kg intraperitoneal everyday, 14 days after nephritis induction, vs control group): decreased
hypertrophy of kidneys (nephritis model rat [1]; [5]): suppressed
hypertrophy of liver (nephritis model rat [1]; [5]): suppressed
nephritis score (nephritis model rat [2]; 50 glomeruli per sample, three samples, rank 1 (normal) to rank 5 (most progressed damage), control group 3.80±0.13): 2.77±0.04
abnormal histologic hypertrophy of proximal convoluted tubule tissue (nephritis model rat [2]; PAS staining, orniplabin-injected group): not observed
crescent formation (nephritis model rat [2]; [6]): low level crescent formation
mesangium proliferation (nephritis model rat [2]; [6]): almost no mesangium proliferation
concentration of BIL in plasma (nephritis model rat [3]; [7]): prevented or these concentrations were recovered
concentration of CA in plasma (nephritis model rat [3]; [7]): prevented or these concentrations were recovered
concentration of GLU in plasma (nephritis model rat [3]; [7]): prevented or these concentrations were recovered
concentration of IP in plasma (nephritis model rat [3]; [7]): prevented or these concentrations were recovered
concentration of TP (total proteins) in plasma (nephritis model rat [3]; orniplabin-injected group): recovered to the normal level
concentration of ACAC in plasma (nephritis model rat [3]; [8]): lower than that of the control group
concentration of ALB in plasma (nephritis model rat [3]; [8]): almost not different
concentration of ALP in plasma (nephritis model rat [3]; [8]): not significantly different
concentration of ALT in plasma (nephritis model rat [3]; [8]): not significantly different
concentration of AST in plasma (nephritis model rat [3]; [8]): not significantly different
concentration of CRE-S in plasma (nephritis model rat [3]; [8]): almost not different
concentration of HDL in plasma (nephritis model rat [3]; [8]): in decreasing trend
concentration of LD in plasma (nephritis model rat [3]; [8]): not significantly different
concentration of OHBA in plasma (nephritis model rat [3]; [8]): prevented or these concentrations were recovered; also recorded: higher than that of the control group
concentration of OK in plasma (nephritis model rat [3]; [8]): not significantly different
concentration of PL in plasma (nephritis model rat [3]; [8]): in decreasing trend
concentration of T-CHO in plasma (nephritis model rat [3]; [8]): in decreasing trend
concentration of TG in plasma (nephritis model rat [3]; [8]): significantly decreased
concentration of UN in plasma (nephritis model rat [3]; [8]): almost not different
concentration of γ-GTP in plasma (nephritis model rat [3]; [8]): not significantly different
